The subject of test [1] is Methicillin Resistant Staphylococcus aureus strain USA 200. The test is described as follows: Minimum inhibitory concentration (MIC), CLSI broth micro-dilution, S. aureus. The format is cell-based. The settings on record: Staphylococcus aureus, MRSA / USA200; Table 6; MRSA USA 200; cation adjusted Mueller Hinton Broth + 0.002% Tween-80; 35° C., 22 hours. The gist of the method:
(§1)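 Colonies grown 20 h at 35° C on Trypticase Soy agar (MRSA) or Luria agar (E. coli) were suspended in cation-adjusted Mueller Hinton broth with 0.002% Tween-80. Suspensions were added at OD600 0.0005 to 10-point twofold compound dilutions, then incubated 22 h at 35° C.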

For test [2], the system named is Escherichia coli ATCC 25922. Kind of test: Minimum inhibitory concentration (MIC), CLSI broth micro-dilution, E. coli. The class given is cell-based. The conditions noted are these: Escherichia coli, ATCC25922, 22 h, Table 6, cation adjusted Mueller Hinton Broth + 0.002% Tween-80, 35° C. The gist of the method: as §1
In general terms: Broth dilution looks for growth in wells or tubes with falling amounts of substance.

With `CCCCCc1ccc(-c2nc(C)c(C(=O)N[C@@H](CCN)C(=O)N(C)[C@@H]3C(=O)N[C@@H](C)C(=O)N[C@H](C(=O)NCC#N)Cc4ccc(OCCN)c(c4)-c4cc3ccc4OCCN)o2)cc1` (racemic) [Compound 381, 4-methyl-2-(4-pentylphenyl)-N-[rac-(1S)-3-amino-1-[methyl-[rac-(7S,10S,13S)-3,18-bis(2-aminoethoxy)-13-(cyanomethylcarbamoyl)-10-methyl-8,11-dioxo-9,12-diazatricyclo[13.3.1.12,6]icosa-1(19),2,4,6(20),15,17-hexaen-7-yl]carbamoyl]propyl]oxazole-5-carboxamide], the MIC was found to be 0.067 µM in test [1] and 4.3 µM in test [2].
For the compound `CCCCCc1ccc(-c2nc(C)c(C(=O)N[C@H](CCN)C(=O)N(C)[C@@H]3C(=O)N[C@@H](C)C(=O)N[C@H](C(=O)NCC#N)Cc4ccc(OCCN)c(c4)-c4cc3ccc4OCCN)o2)cc1` (racemic) [Compound 382, 4-methyl-2-(4-pentylphenyl)-N-[rac-(1R)-3-amino-1-[methyl-[rac-(7S,10S,13S)-3,18-bis(2-aminoethoxy)-13-(cyanomethylcarbamoyl)-10-methyl-8,11-dioxo-9,12-diazatricyclo[13.3.1.12,6]icosa-1(19),2,4,6(20),15,17-hexaen-7-yl]carbamoyl]propyl]oxazole-5-carboxamide], the MIC in test [1] came to 0.4 µM; in test [2], 4.3 µM.
Regarding `C[C@@H]1NC(=O)[C@@H](N(C)C(=O)[C@H](CCN)NC(=O)c2ccn(-c3ccc(C(C)(C)C)cc3)c(=O)c2)c2ccc(OCCN)c(c2)-c2cc(ccc2OCCN)C[C@@H](C(=O)NCC#N)NC1=O` (racemic) [Compound 383, rac-(8S,11S,14S)-3,18-bis(2-aminoethoxy)-N-(cyanomethyl)-11-methyl-14-[methyl-[rac-(2S)-4-amino-2-[[1-(4-tert-butylphenyl)-2-oxo-pyridine-4-carbonyl]amino]butanoyl]amino]-10,13-dioxo-9,12-diazatricyclo[13.3.1.12,6]icosa-1(18),2(20),3,5,15(19),16-hexaene-8-carboxamide], the MIC is 0.1 µM in test [1] and 1.1 µM in test [2].
With `C[C@@H]1NC(=O)[C@@H](N(C)C(=O)[C@H](CCN)NC(=O)c2cnn(-c3ccc(C(C)(C)C)cc3)c(=O)c2)c2ccc(OCCN)c(c2)-c2cc(ccc2OCCN)C[C@@H](C(=O)NCC#N)NC1=O` (racemic) [Compound 384, rac-(8S,11S,14S)-3,18-bis(2-aminoethoxy)-N-(cyanomethyl)-11-methyl-14-[methyl-[rac-(2S)-4-amino-2-[[1-(4-tert-butylphenyl)-6-oxo-pyridazine-4-carbonyl]amino]butanoyl]amino]-10,13-dioxo-9,12-diazatricyclo[13.3.1.12,6]icosa-1(18),2(20),3,5,15(19),16-hexaene-8-carboxamide], the minimal inhibitory concentration (MIC) in test [1] is 0.033 µM; in test [2], 0.4 µM.
For the compound `Cc1nc(-c2ccc(C(C)(C)C)cc2)nnc1C(=O)N[C@@H](CCN)C(=O)N(C)[C@@H]1C(=O)N[C@@H](C)C(=O)N[C@H](C(=O)NCC#N)Cc2ccc(OCCN)c(c2)-c2cc1ccc2OCCN` (racemic) [Compound 385, rac-(8S,11S,14S)-3,18-bis(2-aminoethoxy)-N-(cyanomethyl)-11-methyl-14-[methyl-[rac-(2S)-4-amino-2-[[3-(4-tert-butylphenyl)-5-methyl-1,2,4-triazine-6-carbonyl]amino]butanoyl]amino]-10,13-dioxo-9,12-diazatricyclo[13.3.1.12,6]icosa-1(18),2(20),3,5,15(19),16-hexaene-8-carboxamide], the MIC in test [1] came out at 0.017 µM; in test [2] it was 0.27 µM.
On to `C[C@@H]1NC(=O)[C@@H](N(C)C(=O)[C@H](CCN)NC(=O)c2cnc(-c3ccc(C(C)(C)C)cc3)c(=O)n2C)c2ccc(OCCN)c(c2)-c2cc(ccc2OCCN)C[C@@H](C(=O)NCC#N)NC1=O` (racemic) [Compound 386, rac-(8S,11S,14S)-3,18-bis(2-aminoethoxy)-N-(cyanomethyl)-11-methyl-14-[methyl-[rac-(2S)-4-amino-2-[[5-(4-tert-butylphenyl)-1-methyl-6-oxo-pyrazine-2-carbonyl]amino]butanoyl]amino]-10,13-dioxo-9,12-diazatricyclo[13.3.1.12,6]icosa-1(18),2(20),3,5,15(19),16-hexaene-8-carboxamide], for which the MIC was found to be 0.75 µM in test [1] and 8 µM in test [2].
`CCCCCCc1ncc(-c2ccc(C(=O)N[C@@H](CCN)C(=O)N(C)[C@@H]3C(=O)N[C@@H](C)C(=O)N[C@H](C(=O)NCC#N)Cc4ccc(OCCN)c(c4)-c4cc3ccc4OCCN)c(C(F)F)c2)cn1` (racemic) [Compound 388, rac-(8S,11S,14S)-3,18-bis(2-aminoethoxy)-N-(cyanomethyl)-11-methyl-14-[methyl-[rac-(2S)-4-amino-2-[[2-(difluoromethyl)-4-(2-hexylpyrimidin-5-yl)benzoyl]amino]butanoyl]amino]-10,13-dioxo-9,12-diazatricyclo[13.3.1.12,6]icosa-1(18),2(20),3,5,15(19),16-hexaene-8-carboxamide]: the MIC in test [1] was determined as 0.031 µM; in test [2], 1 µM.
As for `C[C@@H]1NC(=O)[C@@H](N(C)C(=O)[C@H](CCN)NC(=O)C2CCN(c3ccc(C(C)(C)C)cc3)CC2)c2ccc(OCCN)c(c2)-c2cc(ccc2OCCN)C[C@@H](C(=O)NCC#N)NC1=O` (racemic) [Compound 389, rac-(8S,11S,14S)-3,18-bis(2-aminoethoxy)-N-(cyanomethyl)-11-methyl-14-[methyl-[rac-(2S)-4-amino-2-[[1-(4-tert-butylphenyl)piperidine-4-carbonyl]amino]butanoyl]amino]-10,13-dioxo-9,12-diazatricyclo[13.3.1.12,6]icosa-1(18),2(20),3,5,15(19),16-hexaene-8-carboxamide], the MIC in test [1] worked out at 0.13 µM; in test [2] it was 4 µM.
Take `Cc1nc2cc(-c3ccc(C(C)(C)C)cc3)ccn2c1C(=O)N[C@@H](CCN)C(=O)N(C)[C@@H]1C(=O)N[C@@H](C)C(=O)N[C@H](C(=O)NCC#N)Cc2ccc(OCCN)c(c2)-c2cc1ccc2OCCN` (racemic) [Compound 393, rac-(8S,11S,14S)-3,18-bis(2-aminoethoxy)-N-(cyanomethyl)-11-methyl-14-[methyl-[rac-(2S)-4-amino-2-[[7-(4-tert-butylphenyl)-2-methyl-imidazo[1,2-a]pyridine-3-carbonyl]amino]butanoyl]amino]-10,13-dioxo-9,12-diazatricyclo[13.3.1.12,6]icosa-1(18),2(20),3,5,15(19),16-hexaene-8-carboxamide]: the MIC in test [1] stood at 0.021 µM; in test [2] it was 8.2 µM.
For the compound `CCCCCCc1ccc2cc(C(=O)N[C@@H](CCN)C(=O)N(C)[C@@H]3C(=O)N[C@@H](C)C(=O)N[C@H](C(=O)NCC#N)Cc4ccc(OCCN)c(c4)-c4cc3ccc4OCCN)c(C)nc2c1` (racemic) [Compound 394, rac-(8S,11S,14S)-3,18-bis(2-aminoethoxy)-N-(cyanomethyl)-11-methyl-14-[methyl-[rac-(2S)-4-amino-2-[(7-hexyl-2-methyl-quinoline-3-carbonyl)amino]butanoyl]amino]-10,13-dioxo-9,12-diazatricyclo[13.3.1.12,6]icosa-1(18),2(20),3,5,15(19),16-hexaene-8-carboxamide], the figures for the minimal inhibitory concentration (MIC) in test [1] and in test [2] were 0.0083 µM and 0.2 µM, respectively.
For the compound `CCCCCCc1ccc2nc(C)c(C(=O)N[C@@H](CCN)C(=O)N(C)[C@@H]3C(=O)N[C@@H](C)C(=O)N[C@H](C(=O)NCC#N)Cc4ccc(OCCN)c(c4)-c4cc3ccc4OCCN)cc2c1` (racemic) [Compound 395, rac-(8S,11S,14S)-3,18-bis(2-aminoethoxy)-N-(cyanomethyl)-11-methyl-14-[methyl-[rac-(2S)-4-amino-2-[(6-hexyl-2-methyl-quinoline-3-carbonyl)amino]butanoyl]amino]-10,13-dioxo-9,12-diazatricyclo[13.3.1.12,6]icosa-1(18),2(20),3,5,15(19),16-hexaene-8-carboxamide], the minimal inhibitory concentration (MIC) was found to be 0.013 µM in test [1] and 0.27 µM in test [2].
As to `CCCCCCOc1ccc2nc(C)c(C(=O)N[C@@H](CCN)C(=O)N(C)[C@@H]3C(=O)N[C@@H](C)C(=O)N[C@H](C(=O)NCC#N)Cc4ccc(OCCN)c(c4)-c4cc3ccc4OCCN)cc2c1` (racemic) [Compound 396, rac-(8S,11S,14S)-3,18-bis(2-aminoethoxy)-N-(cyanomethyl)-11-methyl-14-[methyl-[rac-(2S)-4-amino-2-[(6-hexoxy-2-methyl-quinoline-3-carbonyl)amino]butanoyl]amino]-10,13-dioxo-9,12-diazatricyclo[13.3.1.12,6]icosa-1(18),2(20),3,5,15(19),16-hexaene-8-carboxamide], the MIC turned out to be 0.016 µM in test [1] and 0.5 µM in test [2].
As to `Cc1nc2ccc(Oc3ccc(C(C)(C)C)cc3)cc2cc1C(=O)N[C@@H](CCN)C(=O)N(C)[C@@H]1C(=O)N[C@@H](C)C(=O)N[C@H](C(=O)NCC#N)Cc2ccc(OCCN)c(c2)-c2cc1ccc2OCCN` (racemic) [Compound 397, rac-(8S,11S,14S)-3,18-bis(2-aminoethoxy)-N-(cyanomethyl)-11-methyl-14-[methyl-[rac-(2S)-4-amino-2-[[6-(4-tert-butylphenoxy)-2-methyl-quinoline-3-carbonyl]amino]butanoyl]amino]-10,13-dioxo-9,12-diazatricyclo[13.3.1.12,6]icosa-1(18),2(20),3,5,15(19),16-hexaene-8-carboxamide], the MIC in test [1] is 0.023 µM; in test [2], 0.38 µM.

For orientation: MIC means the least concentration at which growth counts as inhibited.

(Values after patent publication US20260274892A1, “MACROCYCLIC BROAD SPECTRUM ANTIBIOTICS” (RQx Pharmaceuticals, Inc., priority 2017, published 2026).)
